One data set concerns the target T1, a-Syn aggregates (Homo sapiens, UniProt P37840, A53T).
T1 construct: tissue The Jackson Laboratory 017682; host or cells: brain sections of rotenone-treated transgenic mice
Briefly: Binding specificity on brain slices of rotenone-treated SNCA transgenic mice. Conditions: brain slices, rotenone-treated SNCA Tg mice; Fig. 2. Here is the method:
To further explore whether the positive compounds selectively bind to Lewy bodies, brain slices from mice were used to test the binding specificity assays.
Staining with a-Synuclein protein coding gene (SNCA) transgenic mice (the Jackson Laboratory; stock numbers: 017682) were treated with rotenone (Oral gavage of rotenone under the following protocol: Mice were treated with 0.1 mL/25 g of vehicle containing 1% methylcellulose (Sigma, Catalog No.: M0512) and 1.25% chloroform (Sigma, Catalog No.: 2432) or a solution containing 0.625 mg/mL of rotenone (ULTRA Scientific, Catalog No.: PST-890) with 1% methylcellulose and 1.25% chloroform. We prepared rotenone solution by dissolving rotenone in chloroform and then diluting into 1% methylcellulose solution while mixing vigorously. Rotenone or vehicle control was orally administered with a 1.2 x 60 mm gavage (Unimed, Switzerland) once a day for 5 days/week, consecutively for 3 months.), which contains abundant LB-like inclusions. Furthermore, brain slices from NFT abundant Tau P301S mice and Aβ-enriched 5 x FAD mice were also used separately.
The brain slices were fixed and incubated for 12 h at 4 °C with primary antibodies followed by incubation with Alexa Fluor 568-, Alexa Fluor 488-, or Alexa Fluor 647-conjugated secondary antibodies (Invitrogen) for 3 h at room temperature. Then stained with ThS (Sigma, Catalog No.: T1892) or candidate compounds at room temperature, 4',6-diamidino-2-phenylindole (DAPI, 1 µg/ml) (Sigma-Aldrich) was used for the nuclear staining. The slides were imaged with Olympus FluoView FV1000 confocal laser scanning microscope using Olympus FluoView software to acquire data.

A short description of data set [1]: In vivo PK profiling, plasma and brain exposure. Also on record: species or system male CD-1 (ICR) mice. Conditions: 5 mg/kg via tail vein injection; for Kp at 1 min: at 1 minute, read-out: brain/plasma ratio; for half-life: plasma. Here is the method: To test whether these compounds are brain permeable in vivo, in vivo PK profiling was conducted to determain brain exposure.
An in vivo PK study was performed in male CD-1 (ICR) mice. Weighed a known amount of test compound and dissolved in vehicle (5% NMP + 15% Solutol + 80% PBS) to make a formulation (1 mg/mL). Then administered 5 mg/kg compound via tail vein injection into mice. The experiment included five groups (sampling time points), each group consisting of three male CD-1 (ICR) mice (body weight range: 29.1-30.6 g). At designated time points (0, 1, 5, 15, and 30 minutes post-injection), serial venous blood samples (approximately 30 µL each) and brain tissue samples were harvested from each animal. Blood samples were collected into Vacutainer IM tubes containing EDTA-K2 anticoagulant, inverted several times, and immediately placed on wet ice pending plasma centrifugation. For brain tissue samples, PBS (100 mM, pH 7.4) at […] the weight of the tissue (1:4, w/v) was added for homogenization. The concentrations of the test compound in plasma and brain tissue homogenates were measured by the LC/MS/MS analysis, with the specific operations as follows: Aliquots of 10 µL plasma sample or 50 µL brain homogenate sample was transferred to a 96-well plate, mixed with 200 µL protein precipitation solvent (methanol/acetonitrile, 1:1 v/v, containing 5 ng/mL Terfenadine). After protein precipitation, the supernatant was collected and diluted 3-fold with methanol/water (1:1, v/v, containing 0.1% FA). 1 µL of plasma samples or 3 µL of brain tissue homogenate samples was taken for LC/MS/MS analysis.

Data set [2] deals with T2, α-Syn-p129 or α-Syn aggregates (Homo sapiens, UniProt P37840, A53T).
T2 construct: tissue The Jackson Laboratory 017682; host or cells: brain sections of rotenone-treated transgenic mice
Nature of the data set: In vivo validation: tail vein injection, then staining of brain sections. Also on record: species or system rotenone-treated α-Syn A53T mice. Conditions: 2 mg/kg tail vein injection; 0.5 hours after administration. Here is the method: (§1) In vivo validation of the compounds was performed using 8-month-old wild-type mice (Jiangsu Aniphe Biolaboratory Inc), 12-month-old 5xFAD mice (The Jackson Laboratory; Catalog No.: 034840), 6-month-old Tau P301S mice (The Jackson Laboratory; Catalog No.: 008169), and rotenone-treated α-Syn A53T mice (The Jackson Laboratory; Catalog No.: 017682). All mice were stratified by sex and randomly divided into groups, and the compounds were administered via tail vein injection at a dose of 2 mg/kg. Tissues were harvested and mouse brain sections were prepared 0.5 hours after administration, followed by staining with anti-Aβ (Biolegend; Catalog No.: SIG-39300) or AT8 (Thermo Fisher; Catalog No.: MN1020) together with the compounds, respectively.

The next data set has as its target T3, Aβ (Homo sapiens, UniProt P05067).
T3 construct: tissue The Jackson Laboratory 034840; host or cells: brain of 5xFAD mice, compound injected in vivo, sections made afterwards
Described as above. Also on record: species or system 5xFAD mice. Conditions: 2 mg/kg tail vein injection; 0.5 hours after administration. The protocol:
as §1

Another data set has as its target T4, AT8 (Homo sapiens, UniProt P10636, P618S).
T4 construct: tissue The Jackson Laboratory 008169; host or cells: brain of Tau P301S mice, compound injected in vivo, sections made afterwards
The description is as above. Also on record: species or system Tau P301S mice. Conditions: 2 mg/kg tail vein injection; 0.5 hours after administration. The protocol:
as §1

Where [3] appears, read: male, CD-1 (ICR), mouse, brain/plasma, intravenous.
[4] abbreviates: male, CD-1 (ICR), mouse, brain/plasma, intravenous, read-out: brain/plasma ratio, maximum.
[5] abbreviates: male, CD-1 (ICR), mouse, intravenous.

The structures appear in SMILES notation.

T3 sequence (P05067 672-713 limits assumed): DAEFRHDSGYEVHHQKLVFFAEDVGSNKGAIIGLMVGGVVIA
T4 sequence (P10636 1-412 isoform P10636-7 P272S): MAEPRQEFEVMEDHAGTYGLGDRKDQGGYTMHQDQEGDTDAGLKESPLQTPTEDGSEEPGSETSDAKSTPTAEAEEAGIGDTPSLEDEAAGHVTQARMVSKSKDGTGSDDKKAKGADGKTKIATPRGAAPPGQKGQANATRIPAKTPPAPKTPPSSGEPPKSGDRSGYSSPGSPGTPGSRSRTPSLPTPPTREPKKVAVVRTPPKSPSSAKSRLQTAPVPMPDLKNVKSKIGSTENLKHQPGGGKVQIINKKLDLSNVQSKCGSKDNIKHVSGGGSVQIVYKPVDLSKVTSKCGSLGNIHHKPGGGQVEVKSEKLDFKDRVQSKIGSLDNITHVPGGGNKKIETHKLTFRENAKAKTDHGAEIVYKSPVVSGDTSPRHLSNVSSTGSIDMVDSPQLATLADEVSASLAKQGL

`COc1c(/C=C/c2nc3cc(C)c(N(C)CCOCCF)cc3s2)ccc(O)c1Br` [Compound E, (E)-2-bromo-4-(2-(6-((2-(2-fluoroethoxy)ethyl)(methyl)amino)-5-methylbenzo[d]thiazol-2-yl)vinyl)-3-methoxyphenol]: on a-Syn aggregates, the “capture of a-Syn aggregates” value is given as “sensitively captured a-Syn aggregates”. The Kp at 1 min in data set [1] (setting [3]) is 0.12. Further, the Kp at 15 min in data set [1] (setting [4]) was found to be 3.37. Further, the “co-localization with α-Syn-p129 or α-Syn aggregates” value (“co-localization” below) in data set [2] is given as “co-localized”. Besides, at Aβ, the “specific binding to Aβ” value is on record as “no specific binding”. Besides, the “specific binding to AT8” value at AT8 is reported as “no specific binding”.

As for `CCN(CCOCCF)c1cc2sc(/C=C/c3ccc(O)c(Br)c3)nc2cc1C` [Compound R, (E)-2-bromo-4-(2-(6-(ethyl(2-(2-fluoroethoxy)ethyl)amino)-5-methylbenzo[d]thiazol-2-yl)vinyl)phenol], on a-Syn aggregates, the “capture of a-Syn aggregates” value is “sensitively captured a-Syn aggregates”. The “plasma half-life extension compared to F0502B” value in data set [1] was determined as 4.7 fold. The Kp at 1 min in data set [1] (setting [3]) amounted to 0.05. For the same compound, in data set [1] (male, CD-1 (ICR), mouse, brain/plasma, intravenous, at 30 minutes, read-out: brain/plasma ratio, maximum), the Kp at 30 min amounted to 2.55. This compound also gave a half-life in data set [1] (setting [5]) of 32.4 min. The “co-localization” value in data set [2] is given as “co-localized”. Besides, the “specific binding to Aβ” value on Aβ is recorded as “no specific binding”. Moreover, the “specific binding to AT8” value on AT8 is “no specific binding”.

As for `Cc1cc2nc(/C=C/c3ccc(O)c(N)c3)sc2cc1N(C)CCOCCF` [Compound C, (E)-2-amino-4-(2-(6-((2-(2-fluoroethoxy)ethyl)(methyl)amino)-5-methylbenzo[d]thiazol-2-yl)vinyl)phenol], the “capture of a-Syn aggregates” value on a-Syn aggregates was “sensitively captured a-Syn aggregates”. Moreover, the “plasma half-life extension compared to F0502B” value in data set [1] came to 10 fold. In data set [1] (setting [3]), the Kp at 1 min worked out at 0.24. Further, the Kp at 15 min in data set [1] (setting [4]) was 1.29. The compound also had a half-life in data set [1] (setting [5]) of 68.4 min. Besides, the “co-localization” value in data set [2] is “co-localized”. Moreover, at Aβ, the “specific binding to Aβ” value was “no specific binding”. Also, the “specific binding to AT8” value on AT8 is “no specific binding”.

Usually half-life stands for how long it takes for the measured level to halve. Low values mean fast loss, high ones slow loss.

Values taken from patent EP4733299A1, “SULFUR-CONTAINING FUSED RING COMPOUND, PHARMACEUTICAL COMPOSITION CONTAINING SAME, AND PREPARATION METHOD THEREFOR AND USE THEREOF” (Shenzhen Braegen Pharmaceutical Co., Ltd., priority 2023, dated 2024).
